According to US4177282A, “Hydantoin therapeutic agents” (priority 1978, dated 1979):
Structures can show the parent of a compound that is named as a salt.

How the values were obtained:
[1] = target: T1, partially purified aldose reductase enzyme obtained from calf lens (Bos taurus, UniProt P16116); assay: inhibition of isolated aldose reductase enzyme activity (procedure of S. Hayman et al., as modified by K. Sestanj et al.); assay type: biochemical; settings: for inhibition at 100 µM / inhibition at 10 µM / inhibition at 1 µM / inhibition at 0.1 µM / Percent Inhibition (%) of aldose reductase enzyme activity: calf lens enzyme; for inhibition at 100 µM / inhibition at 10 µM / inhibition at 1 µM / inhibition at 0.1 µM: read-out: Percent Inhibition (%) of aldose reductase enzyme activity
T1 construct: partially purified aldose reductase enzyme obtained from calf lens; from tissue; host or cells: calf lens
Procedure: (§1) The activity of the compounds of the present invention, as agents for the control of chronic diabetic complications, is determined by their ability to successfully pass one or more of the following standard biological and/or pharmacological tests, viz., (1) measuring their ability to inhibit the enzyme activity of isolated aldose reductase; (2) measuring their ability to reduce or inhibit sorbitol accumulation in the sciatic nerve of acutely streptozotocinized (i.e., diabetic) rats; (3) measuring their ability to reverse alredy-elevated sorbitol levels in the sciatic nerve and lens of chronic streptozotocin-induced diabetic rats; (4) measuring their ability to prevent or inhibit galactitol formation in the lens of acutely galactosemic rats, and (5) measuring their ability to delay cataract formation and reduce the severity of lens opacities in chronic galactosemic rats.
In every case, the substrate employed was partially purified aldose reductase enzyme obtained from calf lens.

[2] = system: sorbitol accumulation in the sciatic nerve of streptozotocinized (i.e., diabetic) rats; assay: inhibition of sorbitol accumulation in the sciatic nerve of streptozotocinized (diabetic) rats; assay type: in vivo, rat; settings: measured at 27 hours, vs untreated
Procedure: as §1
The following spiro-hydantoin compounds of Preparations B and C and Examples I-II, respectively, were tested for their ability to reduce or inhibit sorbitol accumulation in the sciatic nerve of streptozotocinized (i.e., diabetic) rats by the procedure essentially described in U.S. Pat. No. 3,821,383. In the present study, the amount of sorbitol accumulation in the sciatic nerves was measured 27 hours after induction of diabetes. The compounds were administered orally at the dose levels indicated 4, 8 and 24 hours following the administration of streptozotocin. The results obtained in this manner are presented below in terms of percent inhibition (%) afforded by the test compound as compared to the case where no compound was administered (i.e., the untreated animal where sorbitol levels normally rise from approximately 50-100 mM/g. tissue to as high as 400 mM/g. tissue in the 27-hour test period): […]

[3] = system: sorbitol levels in the sciatic nerve and lens of diabetic subjects; assay: lowering of sorbitol levels in the sciatic nerve and lens of diabetic subjects; assay type: in vivo, rat
Procedure: as §1

[4] = system: galactitol levels in the lens of galactosemic subjects; assay: lowering of galactitol levels in the lens of galactosemic subjects; assay type: in vivo, rat
Procedure: as §1

[5] = system: sorbitol levels in diabetic rats; assay: control (inhibition) of formation of sorbitol levels in diabetic rats, oral; assay type: in vivo, rat; settings: 0.25 mg./kg. to 5.0 mg./kg.
From the text: As previously indicated, the dextrorotatory spiro-hydantoin compounds of this invention are all readily adapted to therapeutic use as aldose reductase inhibitors for the control of chronic diabetic complications, in view of their ability to reduce lens sorbitol levels in diabetic subjects to a statistically significant degree. […] The other compounds of this invention also cause similar results. Furthermore, the herein described compounds of this invention can be administered by either the oral or parenteral routes of administration, for the present purposes at hand, without causing any significant untoward pharmacological side reactions to occur in the subject to whom they are so administered. In general, these compounds are ordinarily administered in dosages ranging from about 0.05 mg. to about 5.0 mg. per kg. of body weight per day, although variations will necessarily occur depending upon the weight and condition of the subject being treated and the particular route of administration chosen.

solubility in water = assay type: physicochemical; settings: amorphous powder, freeze-dried
[6] = 0.25 mg./kg. orally at 4, 8 and 24 hours after streptozotocin
[7] = 0.75 mg./kg. orally at 4, 8 and 24 hours after streptozotocin
[8] = 1.5 mg./kg. orally at 4, 8 and 24 hours after streptozotocin
[9] = 2.5 mg./kg. orally at 4, 8 and 24 hours after streptozotocin

In the case of `O=C1NC(=O)C2(CCOc3ccc(F)cc32)N1` (racemic) [dl-Cpd. of Prep. B, dl-6-fluoro-spiro-[chroman-4,4'-imidazolidine]-2',5'-dione], the inhibition at 100 µM ([1]; 10^-4 M) is reported as 85%, the inhibition at 10 µM ([1]; 10^-5 M) is reported as 58% and the inhibition at 1 µM ([1]; 10^-6 M) is reported as 52%. For the same compound, the inhibition at 0.1 µM ([1]; 10^-7 M) was 3%, the “Percent Inhibition (%) of sorbitol accumulation in the sciatic nerve” value (“Percent Inhibition (%) … in the sciatic nerve” below) [2, 6] was 19% and the “Percent Inhibition (%) … in the sciatic nerve” value [2, 7] was 45%. The “Percent Inhibition (%) … in the sciatic nerve” value [2, 8] was 72%.
Work on `O=C1NC(=O)C2(CCSc3ccc(F)cc32)N1` (racemic) [dl-Cpd. of Prep. C, dl-6'-fluoro-spiro-[imidazolidine-4,4'-thiochroman]-2,5-dione] yielded an inhibition at 100 µM ([1]; 10^-4 M) of 81%, an inhibition at 10 µM ([1]; 10^-5 M) of 77% and an inhibition at 1 µM ([1]; 10^-6 M) of 66%. For the same compound, the inhibition at 0.1 µM ([1]; 10^-7 M) was 38%, the “Percent Inhibition (%) … in the sciatic nerve” value [2, 7] was 13% and the “Percent Inhibition (%) … in the sciatic nerve” value [2, 8] was 45%. The “Percent Inhibition (%) … in the sciatic nerve” value [2, 9] was 74%.
In the case of `O=C1NC(=O)C2(CCOc3ccc(F)cc32)N1` (single isomer, unassigned) [1-Isomer of Ex. I, l-6-fluoro-spiro-[chroman-4,4'-imidazolidine]-2',5'-dione], the “Percent Inhibition (%) of aldose reductase enzyme activity” value ([1]; 10^-4 M) is reported as 88%, the “Percent Inhibition (%) of aldose reductase enzyme activity” value ([1]; 10^-5 M) is reported as 63% and the “Percent Inhibition (%) of aldose reductase enzyme activity” value ([1]; 10^-6 M) is reported as 23%. For the same compound, the “Percent Inhibition (%) of aldose reductase enzyme activity” value ([1]; 10^-7 M) was -4%, the “Percent Inhibition (%) … in the sciatic nerve” value [2, 7] was 19% and the “Percent Inhibition (%) … in the sciatic nerve” value [2, 9] was 6%. For the same compound, the “Percent Inhibition (%) … in the sciatic nerve” value ([2]; 5.0 mg./kg. orally at 4, 8 and 24 hours after streptozotocin) was 22%.
In the case of `O=C1NC(=O)C2(CCSc3ccc(F)cc32)N1` (single isomer, unassigned) [1-Isomer of Ex. II, l-6'-fluoro-spiro-[imidazolidine-4,4'-thiochroman]-2,5-dione], the “Percent Inhibition (%) of aldose reductase enzyme activity” value ([1]; 10^-4 M) is reported as 87%, the “Percent Inhibition (%) of aldose reductase enzyme activity” value ([1]; 10^-5 M) is reported as 65% and the “Percent Inhibition (%) of aldose reductase enzyme activity” value ([1]; 10^-6 M) is reported as 11%. The “Percent Inhibition (%) of aldose reductase enzyme activity” value ([1]; 10^-7 M) was 10%.
For `O=C1NC(=O)C2(CCOc3ccc(F)cc32)N1` (single isomer, unassigned) [d-Isomer of Ex. I, d-6-fluoro-spiro-[chroman-4,4'-imidazolidine]-2',5'-dione], the “aldose reductase inhibitory activity (in words)” value [1] was “extremely potent”, the inhibition at 100 µM ([1]; 10^-4 M) was 100% and the “Percent Inhibition (%) of aldose reductase enzyme activity” value ([1]; 10^-6 M) was 98%. For the same compound, the “Percent Inhibition (%) of aldose reductase enzyme activity” value ([1]; 10^-7 M) was 39%, the “Percent Inhibition (%) … in the sciatic nerve” value [2, 6] was 47% and the “Percent Inhibition (%) … in the sciatic nerve” value [2, 7] was 78%. For the same compound, the “lowering sorbitol levels in the sciatic nerve and lens (in words)” value [3] was “equally effective in lowering sorbitol levels in the sciatic nerve and lens of diabetic subjects”, the “lowering galactitol levels in the lens (in words)” value [4] was “to a very significantly high degree” and the “control (i.e., inhibit) the formation of sorbitol levels (in words)” value [5] was “to a significantly high degree”.
With `O=C1NC(=O)C2(CCSc3ccc(F)cc32)N1` (single isomer, unassigned) [d-Isomer of Ex. II, d-6'-fluoro-spiro-[imidazolidine-4,4'-thiochroman]-2,5-dione] the “aldose reductase inhibitory activity (in words)” value [1] was “extremely potent”, the inhibition at 100 µM ([1]; 10^-4 M) was 89% and the inhibition at 10 µM ([1]; 10^-5 M) was 80%. For the same compound, the “Percent Inhibition (%) of aldose reductase enzyme activity” value ([1]; 10^-6 M) was 76%, the “Percent Inhibition (%) of aldose reductase enzyme activity” value ([1]; 10^-7 M) was 74% and the “Percent Inhibition (%) … in the sciatic nerve” value [2, 7] was 55%. For the same compound, the “lowering sorbitol levels in the sciatic nerve and lens (in words)” value [3] was “equally effective in lowering sorbitol levels in the sciatic nerve and lens of diabetic subjects” and the “lowering galactitol levels in the lens (in words)” value [4] was “to a very significantly high degree”.
In the case of `O=C1NC(=O)C2(CCOc3ccc(F)cc32)N1` (single isomer, unassigned) [sodium salt of d-6-fluoro-spiro-[chroman-4,4'-imidazolidine]-2',5'-dione], the “solubility in water (in words)” value (solubility in water) is reported as “freely soluble in water”.
